In assay [1] the target is T1, human A3 adenosine receptor (Homo sapiens, UniProt P0DMS8).
T1 construct: clone HS-21a contained the complete open reading frame corresponding to the human homolog of the rat A3 adenosine receptor; expressed in transfected cells; host or cells: CHO cells stably transfected with HS-21a cDNA
T1 sequence (P0DMS8 1-318): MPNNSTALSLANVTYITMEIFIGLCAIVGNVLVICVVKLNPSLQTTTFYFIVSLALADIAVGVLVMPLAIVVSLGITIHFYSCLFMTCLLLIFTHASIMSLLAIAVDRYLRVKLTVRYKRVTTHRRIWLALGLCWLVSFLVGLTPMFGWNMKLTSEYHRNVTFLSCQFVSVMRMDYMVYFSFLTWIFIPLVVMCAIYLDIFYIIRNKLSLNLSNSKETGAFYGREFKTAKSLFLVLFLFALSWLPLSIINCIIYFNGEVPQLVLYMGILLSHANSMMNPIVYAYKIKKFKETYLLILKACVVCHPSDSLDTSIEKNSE
Put plainly: 125I-ABA binding to membranes of stably transfected CHO cells expressing the human A3 adenosine receptor (HS-21a). The following applies: for potency order of antagonists / potency order of agonists: order in words/symbols. Here is the method:
Membranes were prepared from transiently transfected COS7 cells […] after transfection or from G418-selected stably transfected CHO or HEK 293 cells. Cells were harvested in 1 mM EDTA in phosphate buffered saline and centrifuged at 2000×g for 10 minutes. The cell pellet was washed once with phosphate buffered saline. The cell pellet was resuspended in 2 mL of 5 mM Tris, pH 7.6/5mM MgCl2. Membranes were prepared from the cells by freeze-thaw lysis in which the suspension was frozen in a dry ice/ethanol bath and thawed at 25° C. twice. The suspension was homogenized after adding an additional 2 mL of 5 mM Tris, pH 7.6/5 mM MgCl2, in a glass dounce homogenizer with 20 strokes. The membranes were pelleted at 40,000×g at 4° C. for 20 minutes. The membrane pellet was resuspended at a protein concentration of 1-2 mg/mL in binding assay buffer, 50 mM Tris, pH 7.6/10 mM MgCl2. Protein concentration was determined by the method of Bradford ((1976) Anal. Biochem. 72: 248-250). […] Saturation binding of [^125 I]-N^6 -aminiobenizyladenosine (125I-ABA) or [^125 I]-N^6 -2-(4-amino-3-iodophenyl)ethyladenosine (APNEA) was performed on membranes prepared from pSVLA3 transfected COS7 cells. Membranes (100 μg) were incubated in the presence of 0.2 U/mL adenosine deaminase with increasing concentrations of ^125 I-ABA in the range of 0.1-30 nM for 120 minutes at 25° C. in a total volume of 500 μl. The binding assay was terminated by rapid filtration and three washes with ice-cold 50 mM Tris, pH 7.6/10 mM MgCl2 on a Skatron cell harvester equipped with a receptor binding flitermat (SKATRON INSTRUMENTS, INC). Non-specific binding was determined on non-transfected cells. Bound radioactivity was measured by scintillation counting in Ready Safe Scintillation Cocktail (BECKMAN).
The 1.7 kb HS-21a cDNA (A3) was subcloned as a SalI-BamHl fragment into the expression vector pCMV5 (Mumby, S. M., Heukeroth, R. O., Gordon, J. I. and Gilman, A. G. (1990) Proc. Natl. Acad. Sci. USA 87, 728-732.) creating the vector pCMV5-A3. CHO or HEK 293 cells stably expressing the human HS-21 a cDNA were prepared by co-transfection of 15 μg pCMV5-A3 and 1 μg pWLneo (Stratagene) using the calcium phosphate method. Stable cell lines were also generated using EBV based mammalian expression vectors, pREP (INVITROGEN). Neomycin resistant colonies were selected in 1 mg/mL G418 (GIBCO). Stable colonies were screened for expression of HS-21a by ^125 I-ABA binding.
Membranes were prepared from stable CHO cell lines in 10 mM Hepes, pH 7.4 containing 0.1 mM benzamidine and 0.1 mM PMSF as described (Mahan, L. C. et al., (1991) Mol. Pharinacol. 40, 1-7). Pellets were resuspended in 5 mM Hepes, pH 7.4/5 mM MgCl2 /0.1 mM benzarnidine/0.1 mM PMSF at a protein concentration of 1-2 mg/mL and were incubated with adenosine deaminase (Boehringer Mannheim), 2 U/mL at 37° C. for 20 minutes. Saturation binding of ^125 I-ABA was carried out on 50 μg of membranes for 120 minutes at 25° C. in a total volume of 100 μl. The assay was terminated by rapid filtration and three washes with ice-cold binding buffer on a Skatron harvester equipped with a receptor binding filtermat (Skatron Instruments, Inc.). The specific activity of ^125 I-ABA, initially 2,200 Ci/mmol, was reduced to 100 Ci/mmol with nonradioactive I-ABA for saturation analysis. Nonspecific binding was measured in the presence of 1 uM I-ABA. The KD and Bmax values were calculated by the EBDA program (McPherson, G. A. (1983) Computer Programs for Biomedicine 17, 107-114). Competition binding of agonists and antagonists was determined with ^125 I-ABA (0.17-2.0 nM, 2000 Ci/mmol). […] Binding data were analyzed and competition curves were constructed by use of the nonlinear regression curve fitting program Graph PAD InPlot, Version 3.0 (Graph Pad Software, San Diego).

Assay [2] deals with rat A3 adenosine receptor. The following applies: cited from earlier work.
The subject of a further assay is A3 adenosine receptor. To be noted: animal model; Jin et al. 1997; cited from earlier work.
Assay [3] has as its system sheep A3 adenosine receptor. The following applies: cited from earlier work.
The subject of the next assay is A1 adenosine receptor. The following applies: cited from earlier work.
The target of assay [4] is T1, human A3 adenosine receptor. The following applies: cited from earlier work.
The test system of assay [5] is receptor exhibiting an agonist pharmacological profile thought to be characteristic of the rat A3 subtype. To be noted: angiotensin II-supported pithed rat; cited from earlier work.
The subject of assay [6] is sheep A3 adenosine receptor. To be noted: cited from earlier work. The source holds these as a separate data set.
The test system of another assay is A2B adenosine receptor. The following applies: cited from earlier work.
A further assay relates to A2A adenosine receptor. To be noted: cited from earlier work.
For assay [7], the target named is T1, human A3 adenosine receptor. The assay can be described thus: inhibition of forskolin-stimulated cAMP accumulation in stably transfected CHO cells expressing the human A3 receptor. In kind it is cell-based. The following applies: stably transfected CHO cells, human A3. Here is the method:
The human A3 adenosine receptor from a striatal cDNA library can be cloned using a probe derived from the homologous rat sequence.
cAMP Accumulation in Stable CHO Cell Lines
The changes in cAMP accumulation can alternatively be measured in stably transfected CHO cells expressing the human adenosine receptor subtypes. CHO cells are washed twice in phosphate buffered saline (PBS) and detached in 0.2% EDTA in PBS. The cells are pelleted at 800 rpm for 10 min and resuspended in KRH buffer (140 mM NaCl/5 mM KCl/2 mM CaCl2 /1.2 mM MgSO4 /1.2 mM KH2 PO4 /6 mM glucose/25 mM Hepes buffer, pH 7.4). The cells are washed once in KRH buffer and resuspended at 10^7 cells/mL. The cell suspension (100 μl) is mixed with 100 μl of KRH buffer containing 200 uM Ro 20-1724 and incubated at 37° C. for 10 minutes. Adenosine (10 uM) was added in 200 μl KRH buffer containing 200 uM Ro 20-1724 and incubated at 37° C. for 20 minutes. After the incubation, 400 μl of 0.5 mM NaOAc (pH 6.2) was added and the sample was boiled for 20 minutes. The supernatant was recovered by centrifugation for 15 minutes and stored at -70° C. cAMP levels were determined by radiommunoassay (RIANEN kit, DuPont/NEN) using the to acetylation protocol. The effect of antagonists on cAMP accumulation are measured by preincubation for 20 minutes before adding adenosine.
On the technique in general: Cyclic AMP is a second messenger, typically raised through Gs and lowered through Gi signalling.

Assay [8] concerns rat A3 adenosine receptor. To be noted: cited from earlier work. The source holds these as a separate data set.
For the next assay, the system named is asthmatics. The following applies: cited from earlier work.

Entries after “also recorded” stand apart in the source; their conditions may differ.

For the molecule `CCCn1c(=O)c2[nH]c(-c3ccc(OCC(=O)O)cc3)nc2n(Cc2ccc(N)c(I)c2)c1=O` [I-ABOPX], in assay [1] (human A3), the “A3 antagonist affinity in words” value was “highest affinity para-substituted antagonist yet reported for A3 adenosine receptors” and the “potency order of antagonists” value is listed as “I-ABOPX>1,3-dipropyl-8-(4-acrylate) phenylxanthine (BW-A1433)≥xanthine amino cogener (XAC)>>1,3-dipropyl-8-cyclopentylxanthine (DPCPX)”.

Regarding `CCCn1c(=O)c2[nH]c(C3CCCC3)nc2n(CCC)c1=O` [DPCPX, 1,3-dipropyl-8-cyclopentylxanthine], the “binding to rat A3 receptor” value in assay [2] was “not to bind”. Besides, the “potency order of antagonists” value in assay [1] (human A3) was “I-ABOPX>1,3-dipropyl-8-(4-acrylate) phenylxanthine (BW-A1433)≥xanthine amino cogener (XAC)>>1,3-dipropyl-8-cyclopentylxanthine (DPCPX)”.

With `CCCn1c(=O)c2[nH]c(-c3ccc(OCC(=O)NCCN)cc3)nc2n(CCC)c1=O` [XAC], the “binding to rat A3 receptor” value in assay [2] is “not to bind”.

For the molecule `OC[C@H]1O[C@@H](n2cnc3c(O)ncnc32)[C@H](O)[C@@H]1O` [inosine], the “induction of mast cell degranulation” value in the assay on A3 adenosine receptor was “induce mast cell degranulation”.

On to `CCCn1c(=O)c2[nH]c(-c3ccc(C=CC(=O)O)cc3)nc2n(CCC)c1=O` [BW-A1433, 1,3-dipropyl-8-(4-acrylate) phenylxanthine], for which the “potency order of antagonists” value in assay [1] (human A3) is “I-ABOPX>1,3-dipropyl-8-(4-acrylate) phenylxanthine (BW-A1433)≥xanthine amino cogener (XAC)>>1,3-dipropyl-8-cyclopentylxanthine (DPCPX)”.

Consider `Nc1ccc(CCNc2ncnc3c2ncn3[C@@H]2O[C@H](CO)[C@@H](O)[C@H]2O)cc1I` [APNEA, N^6-2-(4-amino-3-iodophenyl)ethyladenosine], for which, in assay [3], the agonist affinity order entry is “I-ABA>APNEA>NECA≥R-PIA>>CPA”.

Consider `Cn1c(=O)c2[nH]c(-c3ccc(S(=O)(=O)O)cc3)nc2n(C)c1=O` [8-(para-sulfophenyl)theophylline], for which the “action on A1 subtype” value in the assay with A1 adenosine receptor is given as “broad action”. The “blockade of human A3 receptor” value in assay [4] was “blocks”. The “sensitivity of hypotension to blockade” value in assay [5] was “insensitive to blockade”. In addition, the “blockade of sheep A3 receptor” value in assay [6] is “blocks”. The “action on A2B subtype” value in the assay on A2B adenosine receptor is given as “broad action”. Further, the “action on A2A subtype” value in the assay with A2A adenosine receptor is recorded as “broad action”.

A word on the Ki: it is a dissociation constant, usually derived from enzyme kinetics or from competition with a known ligand. For `OC[C@H]1O[C@@H](n2cnc3c(NC4CCCC4)ncnc32)[C@H](O)[C@@H]1O` [CPA, N^6 -cyclopentyladenosine], the “inhibition of forskolin-stimulated cAMP accumulation” value in assay [7] was 30-40%. Besides, the agonist affinity order entry in [3] is reported as “I-ABA>APNEA>NECA≥R-PIA>>CPA”. Besides, in assay [1] (competition with 125I-ABA (FIG. 3a), read-out: Ki, agonists), the Ki stood at 0.089 µM. For the same molecule, the “potency order of agonists” value in assay [1] (human A3) was “N-ethylcarboxamidoadenosine (NECA)≥R-phenylisopropyladenosine(R-PIA)>N^6 -cyclopentyladenosine (CPA)>S-p-benylisopropyladenosine (S-PIA); also recorded: NECA>R-PIA>CPA>S-PLA”.

On to `C[C@@H](Cc1ccccc1)Nc1ncnc2c1ncn2[C@@H]1O[C@H](CO)[C@@H](O)[C@H]1O` [S-PIA, (R,S)-N^6-phenyl-2-propyladenosine], for which, in assay [7], the “inhibition of forskolin-stimulated cAMP accumulation” value is 30-40%. Also, the “potency order of agonists” value in assay [1] (human A3) was “N-ethylcarboxamidoadenosine (NECA)≥R-phenylisopropyladenosine(R-PIA)>N^6 -cyclopentyladenosine (CPA)>S-p-benylisopropyladenosine (S-PIA); also recorded: NECA>R-PIA>CPA>S-PLA”.

On to `C[C@H](Cc1ccccc1)Nc1ncnc2c1ncn2[C@@H]1O[C@H](CO)[C@@H](O)[C@H]1O` [R-PIA], for which the “potency order for inhibition of cyclic AMP accumulation” value (“potency order for inhibition” below) in assay [8] is recorded as “NECA=R-PIA>CGS21680”. The “inhibition of forskolin-stimulated cAMP accumulation” value in assay [7] is recorded as 30-40%. Further, the agonist affinity order entry in assay [3] is reported as “I-ABA>APNEA>NECA≥R-PIA>>CPA”. Moreover, the “potency order of agonists” value in [1] (human A3) is “N-ethylcarboxamidoadenosine (NECA)≥R-phenylisopropyladenosine(R-PIA)>N^6 -cyclopentyladenosine (CPA)>S-p-benylisopropyladenosine (S-PIA); also recorded: NECA>R-PIA>CPA>S-PLA”.

In the case of `Nc1ccc(CCNc2ncnc3c2ncn3[C@@H]2O[C@H](CO)[C@@H](O)[C@H]2O)cc1[125I]` [^125 I-APNEA, N^6-2-(4-amino-3^125 iodophenyl)ethyladenosine], in assay [2], the “binding to rat A3 receptor” value is “bind”. In addition, in assay [1] (125I-APNEA, preliminary experiments), the “non-specific binding to CHO cell membranes” value was “high non-specific”.

`CCNC(=O)[C@H]1O[C@@H](n2cnc3c(N)ncnc32)[C@H](O)[C@@H]1O` [NECA, N-ethylcarboxamidoadenosine]: the “potency order for inhibition” value in assay [8] is given as “NECA=R-PIA>CGS21680”. Also, in assay [7], the “inhibition of forskolin-stimulated cAMP accumulation” value was 30-40%. Also, in assay [3], the agonist affinity order result was “I-ABA>APNEA>NECA≥R-PIA>>CPA”. Besides, the “prevention of specific binding of 125I-ABA” value in assay [1] (400 uM NECA) is “prevented”. Also, in [1] (human A3), the “potency order of agonists” value was “N-ethylcarboxamidoadenosine (NECA)≥R-phenylisopropyladenosine(R-PIA)>N^6 -cyclopentyladenosine (CPA)>S-p-benylisopropyladenosine (S-PIA); also recorded: NECA>R-PIA>CPA>S-PLA”.

Turning to `Cn1c(=O)c2[nH]cnc2n(C)c1=O` [theophylline], the “antagonism of adenosine-induced bronchoconstriction” value in the assay on asthmatics was “antagonized”.

In the case of `CCNC(=O)[C@H]1O[C@@H](n2cnc3c(N)nc(NCCc4ccc(CCC(=O)O)cc4)nc32)[C@H](O)[C@@H]1O` [CGS21680], in [8], the “potency order for inhibition” value is recorded as “NECA=R-PIA>CGS21680”.

Values taken from patent US6303619A, “Meta-substituted acidic 8-phenylxanthine antagonists of A3 human adenosine receptors” (priority 1998, dated 2001).
